Paper PMC7933434, “Entropy-driven binding of gut bacterial β-glucuronidase inhibitors ameliorates irinotecan-induced toxicity” (Communications Biology, 2021)
Where “and” joins values, the source holds several entries; their conditions need not be identical. Identical values can stand only once.

Experiments:
HsGUS (human GUS) = biological target: T1, HsGUS (human GUS) (Homo sapiens, UniProt P08236); experiment: GUS inhibition assay, hydrolysis of 4-methylumbelliferyl-β-glucuronide, HsGUS; type: biochemical; design: GUS activity (hydrolysis rate of MUG): unit not given here
T1 construct: HsGUS was prepared as described[37]; made in house
T1 sequence (P08236 23-651): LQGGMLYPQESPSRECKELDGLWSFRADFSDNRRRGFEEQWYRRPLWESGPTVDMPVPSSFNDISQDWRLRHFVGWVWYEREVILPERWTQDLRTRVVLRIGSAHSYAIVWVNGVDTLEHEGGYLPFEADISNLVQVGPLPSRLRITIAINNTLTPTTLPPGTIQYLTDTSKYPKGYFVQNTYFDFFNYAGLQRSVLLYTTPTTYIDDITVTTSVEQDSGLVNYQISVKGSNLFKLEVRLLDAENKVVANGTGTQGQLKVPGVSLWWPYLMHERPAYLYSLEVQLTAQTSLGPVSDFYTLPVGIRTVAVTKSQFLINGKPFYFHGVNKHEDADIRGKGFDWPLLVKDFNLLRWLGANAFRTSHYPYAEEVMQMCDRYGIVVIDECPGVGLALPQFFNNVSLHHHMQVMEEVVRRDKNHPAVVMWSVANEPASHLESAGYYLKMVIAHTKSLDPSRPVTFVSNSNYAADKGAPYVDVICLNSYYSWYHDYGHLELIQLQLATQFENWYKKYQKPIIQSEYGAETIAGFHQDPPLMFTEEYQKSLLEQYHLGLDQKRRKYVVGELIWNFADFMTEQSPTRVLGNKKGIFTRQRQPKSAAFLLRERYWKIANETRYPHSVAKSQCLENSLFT

[1] = biological target: BdGUS (Bifidobacterium dentium GUS) (Bifidobacterium dentium, UniProt D2Q7B1); experiment: biochemical; design: GUS activity (hydrolysis rate of MUG) / 1/v: unit not given here
Sequence of BdGUS (Bifidobacterium dentium GUS) (D2Q7B1 1-668): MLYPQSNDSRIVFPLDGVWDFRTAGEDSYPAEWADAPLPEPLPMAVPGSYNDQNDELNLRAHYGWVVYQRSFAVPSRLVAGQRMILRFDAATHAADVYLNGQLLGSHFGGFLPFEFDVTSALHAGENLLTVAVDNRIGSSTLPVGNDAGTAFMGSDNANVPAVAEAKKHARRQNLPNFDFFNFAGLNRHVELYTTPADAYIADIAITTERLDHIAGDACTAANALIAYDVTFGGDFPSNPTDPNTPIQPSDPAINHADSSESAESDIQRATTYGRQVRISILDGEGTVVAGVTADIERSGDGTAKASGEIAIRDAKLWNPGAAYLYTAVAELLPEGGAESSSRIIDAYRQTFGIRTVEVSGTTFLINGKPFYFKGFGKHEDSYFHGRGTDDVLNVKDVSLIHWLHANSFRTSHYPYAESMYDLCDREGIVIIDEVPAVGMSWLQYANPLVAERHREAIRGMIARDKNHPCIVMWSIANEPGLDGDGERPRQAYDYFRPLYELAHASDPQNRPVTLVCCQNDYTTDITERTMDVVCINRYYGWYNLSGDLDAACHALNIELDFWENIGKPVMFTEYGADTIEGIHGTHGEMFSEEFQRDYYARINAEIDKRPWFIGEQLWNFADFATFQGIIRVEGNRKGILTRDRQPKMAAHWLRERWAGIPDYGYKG

[2] = [Inhibitor 4] = 0.05 μM, [MUG] 0.08 mM
[3] = [Inhibitor 4] = 0.05 μM, [MUG] 0.125 mM
[4] = [Inhibitor 4] = 0.05 μM, [MUG] 0.25 mM
[5] = [Inhibitor 4] = 0.05 μM, [MUG] 0.5 mM
[6] = [Inhibitor 4] = 0.15 μM, [MUG] 0.08 mM
[7] = [Inhibitor 4] = 0.15 μM, [MUG] 0.125 mM
[8] = [Inhibitor 4] = 0.15 μM, [MUG] 0.25 mM
[9] = [Inhibitor 4] = 0.15 μM, [MUG] 0.5 mM
[10] = [Inhibitor 4] = 0.3 μM, [MUG] 0.08 mM
[11] = [Inhibitor 4] = 0.3 μM, [MUG] 0.125 mM
[12] = [Inhibitor 4] = 0.3 μM, [MUG] 0.25 mM
[13] = [Inhibitor 4] = 0.3 μM, [MUG] 0.5 mM
[14] = [Inhibitor 4] = 0.6 μM, [MUG] 0.08 mM
[15] = [Inhibitor 4] = 0.6 μM, [MUG] 0.125 mM
[16] = [Inhibitor 4] = 0.6 μM, [MUG] 0.25 mM
[17] = [Inhibitor 4] = 0.6 μM, [MUG] 0.5 mM

## CCCCCCCCC[C@@H]1NC[C@@H](O)[C@H](O)[C@H]1C(=O)O [Inhibitor 4, C6-nonyl UIFG]
HsGUS (human GUS); [Inhibitor 4] =67 μM, [MUG] 1.6 mM
  GUS activity (hydrolysis rate of MUG): 4205.98 and 4285.65
HsGUS (human GUS); [Inhibitor 4] =67 μM, [MUG] 2 mM
  GUS activity (hydrolysis rate of MUG): 4703.3 and 4573.62
HsGUS (human GUS); [Inhibitor 4] =132 μM, [MUG] 0.1 mM
  GUS activity (hydrolysis rate of MUG): 517.307 and 519.469
HsGUS (human GUS); [Inhibitor 4] =132 μM, [MUG] 0.2 mM
  GUS activity (hydrolysis rate of MUG): 900.965 and 901.806
HsGUS (human GUS); [Inhibitor 4] =132 μM, [MUG] 0.4 mM
  GUS activity (hydrolysis rate of MUG): 1492.38 and 1537.56
HsGUS (human GUS); [Inhibitor 4] =132 μM, [MUG] 0.6 mM
  GUS activity (hydrolysis rate of MUG): 1976.12 and 2037.84
HsGUS (human GUS); [Inhibitor 4] =132 μM, [MUG] 0.8 mM
  GUS activity (hydrolysis rate of MUG): 2410.12 and 2475.98
HsGUS (human GUS); [Inhibitor 4] =132 μM, [MUG] 1.2 mM
  GUS activity (hydrolysis rate of MUG): 2927.86 and 2924.04
HsGUS (human GUS); [Inhibitor 4] =132 μM, [MUG] 1.6 mM
  GUS activity (hydrolysis rate of MUG): 3406.61 and 3409.83
HsGUS (human GUS); [Inhibitor 4] =132 μM, [MUG] 2 mM
  GUS activity (hydrolysis rate of MUG): 3959.47 and 3855.66
HsGUS (human GUS); [Inhibitor 4] =180 μM, [MUG] 0.1 mM
  GUS activity (hydrolysis rate of MUG): 375.667 and 389.113
HsGUS (human GUS); [Inhibitor 4] =180 μM, [MUG] 0.2 mM
  GUS activity (hydrolysis rate of MUG): 647.66 and 642.675
HsGUS (human GUS); [Inhibitor 4] =180 μM, [MUG] 0.4 mM
  GUS activity (hydrolysis rate of MUG): 1075.66 and 1190.92
HsGUS (human GUS); [Inhibitor 4] =180 μM, [MUG] 0.6 mM
  GUS activity (hydrolysis rate of MUG): 1564.63 and 1648.7
HsGUS (human GUS); [Inhibitor 4] =180 μM, [MUG] 0.8 mM
  GUS activity (hydrolysis rate of MUG): 1885.35 and 1934.39
HsGUS (human GUS); [Inhibitor 4] =180 μM, [MUG] 1.2 mM
  GUS activity (hydrolysis rate of MUG): 2412.5 and 2422.72
HsGUS (human GUS); [Inhibitor 4] =180 μM, [MUG] 1.6 mM
  GUS activity (hydrolysis rate of MUG): 2821.07 and 2863.56
HsGUS (human GUS); [Inhibitor 4] =180 μM, [MUG] 2 mM
  GUS activity (hydrolysis rate of MUG): 3316.38 and 3309.46
HsGUS (human GUS); [Inhibitor 4] =262 μM, [MUG] 0.1 mM
  GUS activity (hydrolysis rate of MUG): 312.332 and 326.592
HsGUS (human GUS); [Inhibitor 4] =262 μM, [MUG] 0.2 mM
  GUS activity (hydrolysis rate of MUG): 574.208 and 582.829
HsGUS (human GUS); [Inhibitor 4] =262 μM, [MUG] 0.4 mM
  GUS activity (hydrolysis rate of MUG): 1016.99 and 1025.39
HsGUS (human GUS); [Inhibitor 4] =262 μM, [MUG] 0.6 mM
  GUS activity (hydrolysis rate of MUG): 1397.45 and 1434.43
HsGUS (human GUS); [Inhibitor 4] =262 μM, [MUG] 0.8 mM
  GUS activity (hydrolysis rate of MUG): 1699 and 1721.63
HsGUS (human GUS); [Inhibitor 4] =262 μM, [MUG] 1.2 mM
  GUS activity (hydrolysis rate of MUG): 2236.3 and 2225.05
HsGUS (human GUS); [Inhibitor 4] =262 μM, [MUG] 1.6 mM
  GUS activity (hydrolysis rate of MUG): 2654.14 and 2619.41
HsGUS (human GUS); [Inhibitor 4] =262 μM, [MUG] 2 mM
  GUS activity (hydrolysis rate of MUG): 3001.13 and 3042.83
[1]; BdGUS
  Ki: 440 nM
[1]; [2]
  1/v: 0.1206 and 0.1178 and 0.1199
  GUS activity (hydrolysis rate of MUG): 1.851 and 1.896 and 1.862
[1]; [3]
  1/v: 0.09548 and 0.09298 and 0.09392
  GUS activity (hydrolysis rate of MUG): 2.339 and 2.4016 and 2.377
[1]; [4]
  1/v: 0.06502 and 0.06335 and 0.06665
  GUS activity (hydrolysis rate of MUG): 3.434 and 3.525 and 3.35
[1]; [5]
  1/v: 0.04786 and 0.04662 and 0.0491
  GUS activity (hydrolysis rate of MUG): 4.665 and 4.79 and 4.548
[1]; [6]
  1/v: 0.1451 and 0.1465 and 0.1466
  GUS activity (hydrolysis rate of MUG): 1.539 and 1.524 and 1.523
[1]; [7]
  1/v: 0.1144 and 0.1135 and 0.113
  GUS activity (hydrolysis rate of MUG): 1.951 and 1.968 and 1.976
[1]; [8]
  1/v: 0.07405 and 0.07448 and 0.0755
  GUS activity (hydrolysis rate of MUG): 3.015 and 2.998 and 2.957
[1]; [9]
  1/v: 0.05196 and 0.05207 and 0.05497
  GUS activity (hydrolysis rate of MUG): 4.298 and 4.288 and 4.062
[1]; [10]
  1/v: 0.2039 and 0.1961 and 0.2029
  GUS activity (hydrolysis rate of MUG): 1.095 and 1.138 and 1.1007
[1]; [11]
  1/v: 0.1529 and 0.1514 and 0.1472
  GUS activity (hydrolysis rate of MUG): 1.4607 and 1.475 and 1.517
[1]; [12]
  1/v: 0.09524 and 0.09338 and 0.09505
  GUS activity (hydrolysis rate of MUG): 2.344 and 2.391 and 2.349
[1]; [13]
  1/v: 0.06409 and 0.06318 and 0.06381
  GUS activity (hydrolysis rate of MUG): 3.484 and 3.534 and 3.499
[1]; [14]
  1/v: 0.286 and 0.2822 and 0.2849
  GUS activity (hydrolysis rate of MUG): 0.7809 and 0.7911 and 0.7837
[1]; [15]
  1/v: 0.2142 and 0.2187 and 0.2123
  GUS activity (hydrolysis rate of MUG): 1.043 and 1.021 and 1.052
[1]; [16]
  1/v: 0.1255 and 0.1264 and 0.1244
  GUS activity (hydrolysis rate of MUG): 1.779 and 1.767 and 1.7944
[1]; [17]
  1/v: 0.08292 and 0.0812 and 0.08265
  GUS activity (hydrolysis rate of MUG): 2.693 and 2.75 and 2.702
